According to patent US5789414A, “Pharmaceutical compositions comprising tetrahydropyrimidine derivates” (Yeda Research and Development Co. Ltd., priority 1992, dated 1998):
Numbered stars: 1 amine (or outer) side, 2 acyl side, 3 side chain; on linkers, the order of the positions; unused ones are H or OH. Bridge positions count the residues as written; N and C are the ends. Square brackets hold non-standard residues; d marks the D form. Peptide text beside a SMILES is read from it. I, II: the chains in the order shown. Actinocin(9to1) = Cc1c2oc3c(C)ccc(C(=O)[*:1])c3nc-2c(C(=O)[*:2])c(N)c1=O; NMeV = CN[C@H](C(=O)O)C(C)C; Sar = CNCC(=O)O

Assays:
d(ATGCAT) = assay: 1H NMR titration: equilibrium binding of Act D to d(ATGCAT) in presence and absence of THPs; settings: no THPs
Source text: Expanded views of (a) and (a') are shown in spectra (A) and (A'), respectively of FIG. 4(b). The spectra were obtained at pH 7 (as in FIG. 3).
(c) Binding of Act D to d(ATGCAT). The binding of Act D to free oligonucleotide and to the oligonucleotide-THPs complex have been investigated by the ^1 H NMR titration technique.
The equilibrium binding properties of Act D-d(ATGCAT) in the presence and absence of the THPs (Table 4) were derived from the proton peak area ratios of the free hexamer to the bound Act D-hexamer.

[1] = test system: RNA polymerase I from HeLa cells; assay: In vitro transcription of dCMP-tailed template, RNA polymerase I; format: biochemical, mammalian
Source text: The inhibition of RNA polymerase transcription caused by Act D binding to DNA was studied using the system described in Kadesch and Chamberlin, 1982, in which purified RNA polymerases from mammalian cells, such as RNA polymerases I, II and II from HeLa cells, are able to transcribe defined dCMP-tailed DNA templates efficiently and specifically. The dCMP-tailed DNA system allows quantitative studies of transcription reactions by the polymerase protein itself in the absence of other protein factors, and is thus an appropriate system to analyze the direct effect of DNA-binding drugs on the transcription process, and the protective effect of THP(A) and THP(B) on transcription in the presence of Act D. […]
(§1) Transcription reaction mixtures were incubated in 15 μl of transcription buffer containing 70 mM Tris-HCl (pH 7.9), 0.1M NH4 Cl, 6 mM MgCl2, 5 mM spermidine, 10% glycerol, 0.15 mM dithriothreitol, 0.6 μg of dCMP-tailed template, and 0.5 μl of HeLa RNA polymerase (3u) at 30° C. for 10 min. […] The autoradiogram of the gel was analyzed by molecular dynamics computing densitometer to determine the relative intensities of the bands. […]
(§2) The sensitivity of the three RNA polymerases from HeLa cells to various concentrations of Act D was determined, using the purified polymerases and a dCMP-tailed template of 225 bp for pol I and of 420 bp for pol II and pol III. […]

[2] = test system: RNA polymerase II from HeLa cells; assay: In vitro transcription of dCMP-tailed template, RNA polymerase II; format: biochemical, mammalian; settings: for effect of the THP by itself on the transcription reactions: lanes 2, 6, 10
Procedure: FIG. 5 is a radiogram showing the inhibition of RNA polymerase II transcription by Act D and its resumption due to the addition of THP(A) and THP(B). Relative intensities of the bands were determined as in Table 6. The concentration of the DNA was 71.4 μM.
(§3) The inhibition of RNA polymerase transcription caused by Act D binding to DNA was studied using the system described in Kadesch and Chamberlin, 1982, in which purified RNA polymerases from mammalian cells, such as RNA polymerases I, II and II from HeLa cells, are able to transcribe defined dCMP-tailed DNA templates efficiently and specifically. The dCMP-tailed DNA system allows quantitative studies of transcription reactions by the polymerase protein itself in the absence of other protein factors, and is thus an appropriate system to analyze the direct effect of DNA-binding drugs on the transcription process, and the protective effect of THP(A) and THP(B) on transcription in the presence of Act D.
(§4) DNA-dependent RNA polymerases I, II and III from HeLa cells (pol I, pol II and pol III, respectively) were purified by a method which is a modification of the procedure described by Hodo and Blatti, 1977.
(§5) The templates DNA were linearized by restriction enzyme Pst I generating a 3' protruding end, and tailed at both ends with dCTP by using terminal transferase (Boehringer Mannheim). Following ethanol precipitation, the dCMP-tailed DNAs were digested with a second restriction enzyme, and the selected tailed fragment was purified from agarose gel as described by Kadesch and Chamberlin, 1982.
Transcription reaction mixtures were incubated in 15 μl of transcription buffer containing 70 mM Tris-HCl (pH 7.9), 0.1M NH4 Cl, 6 mM MgCl2, 5 mM spermidine, 10% glycerol, 0.15 mM dithriothreitol, 0.6 μg of dCMP-tailed template, and 0.5 μl of HeLa RNA polymerase (3u) at 30° C. for 10 min. Pulse buffer (3.5 μl) containing 4.3 mM of ATP, GTP and CTP, and 170 μM UTP, 20 μCi of [α-^32 P]UTP was added to the transcription reaction mixture for 20 seconds incubation. Transcription elongation then took place by adding 1.5 μl of chase buffer containing 7 mM UTP in the presence or absence of 0.06 μg Act D. Transcription elongation was carried out for 10 min and was then stopped by addition of proteinase K buffer (0.6% SDS; 25 mM Tris pH 7.9; 25 mM EDTA final concentration) 200 μg/ml proteinase K, and 30 μg of tRNA, and incubated for 25 min at 65° C. The sample was ethanol precipitated, pellet was resuspended in loading buffer (90% formamide; 0.5×Tris borate buffer) and subjected to 6% polyacrylamide--urea gel electrophoresis. The autoradiogram of the gel was analyzed by molecular dynamics computing densitometer to determine the relative intensities of the bands. (Nucleoside triphosphates and tRNA were purchased from Sigma, proteinase K from Boehringer Mannheim, and [α-^32 P]CTP (400 Ci/mmol) from Amersham International, United Kingdom).
The sensitivity of the three RNA polymerases from HeLa cells to various concentrations of Act D was determined, using the purified polymerases and a dCMP-tailed template of 225 bp for pol I and of 420 bp for pol II and pol III. These templates are expected to give runoff transcripts of 225 and 420 nucleotides, respectively, since RNA polymerase initiates transcription at discrete sites at the single-stranded tail double stranded duplex junction. In all experiments a pulse-chase protocol was used.
It was figured that the concentration of the THP(A)+THP(B) required to prevent binding of Act D to DNA would be higher than that of Act D, since they are expected to protect the DNA in general and not necessarily at d(GpC) base pair (bp), whereas the concentration of Act D is related to the d(GpC) content of the DNA. […] Yet when THP(A) and THP(B) were added together in a ratio of 1:1, their effect was dramatic. At a concentration of 200 μM there was a recovery of 75% of transcription in the presence of 2.5 μM Act D, which by itself would have inhibited 97% of the reaction. […]

[3] = test system: RNA polymerase III from HeLa cells; assay: In vitro transcription of dCMP-tailed template, RNA polymerase III; format: biochemical, mammalian
Source text: as §3, §4, §5, §1, §2

[4] = test system: RNA polymerases I, II and III from HeLa cells; assay: In vitro transcription of dCMP-tailed template, summary for the three polymerases; format: biochemical, mammalian; settings: pol I
Source text: as §3, §1, §2

[5] = test system: HeLa whole cell extract (WCE); assay: In vitro transcription using HeLa whole cell extract (WCE); format: biochemical
Procedure: The DNA was preincubated with THPs (A+B) at increasing concentrations for 20 min at 30° C., actinomycin D was then added at a concentration of 0.4 μg/ml. Following 20 min of incubation, WCE (10 μl) was added for incubation of 20 min at 30° C. Radioactive nucleotide mix was then added for a pulse of 5 min followed by addition of chase mix containing 10 mM CTP. Transcription proceeded for 30 min at 30° C. and was then stopped. […] Lane M--molecular weight markers. Lane C--control reaction without […] or THPs. Lanes of reaction with 0.4 μg/ml actinomycin D are marked (+), lanes of increasing concentrations of THPs (0, 5, 10, 20, 50, 100, 200, 500 μg/ml) are also marked above the lanes.
A 20-μl reaction contained 10 μl WCE, 1 μg DNA, 4 mM creatine phosphate, 500 μM ATP, GTP, UTP, 50 μM CTP, 20 μCi of [α-^32 P]CTP, and transcription was performed at 30° C. All reactions were preincubated 20 min before the addition of the nucleotide mixture; 3 min after the addition of radioactive nucleotides, (pulse), chase mix containing 10 mM unlabelled CTP was added and transcription proceeded for additional 20 min.

[6] = Toxicity on administration to mice; format: in vivo; settings: doses of 1, 10 and 100 mg/100 g body weight
Source text: (§6) THP(A) and THP(B) are not toxic to mammals.

[7] = test system: gram positive and gram negative bacteria; assay: Antibiotic activity test on bacterial cultures; format: cell-based; settings: several cultures of gram positive and gram negative bacteria
Source text: as §6

E. coli = E. coli growth under high salt or in the presence of adriamycin; format: cell-based; settings: conditions which otherwise prevent E. coli growth
enzymes = settings: e.g. against heating, freezing and drying; cited from earlier work
HL60 cells = assay: [3H] thymidine incorporation (DNA synthesis) in HL60 cells; format: cell-based; settings: Homo sapiens, HL-60, read-out: inhibition of [3H] thymidine incorporation
Procedure: FIG. 6 illustrates reversal of adriamycin inhibition of DNA synthesis due to THPs. It depicts a schematic presentation of percent [^3 H] thymidine incorporated versus adriamycin concentration according to the table below the scheme. Empty squares--[^3 H] thymidine incorporation versus adriamycin concentration. Filled squares--[^3 H] thymidine incorporation versus adriamycin concentration in the presence of THPs (100 μg/ml).
HL60 cells were grown in RPMI medium (Gibco) containing 10% fetal calf serum (Biological Laboratories--Bet Haemek) in microwell plates (Nunc). Cells were suspended in medium at a concentration of 2×10^5 cells per ml and dispersed into the wells of the plates in 100 μl aliquots. Following 20 hrs of incubation at 37° C., the cells were treated with THPs (100 μg/ml) and adriamycin at increasing concentrations as indicated in FIG. 6. After 24 hrs [^3 H] thymidine was added (1 μCi/well, […]) for a duration of 3 hrs. Thymidine incorporation was stopped by addition of 25 μl trichloroacetic acid (TCA) at 20%, and the plates were placed at 4° C. overnight. TCA precipitates were washed with 10% TCA (100 μl), solubilized in 100 μl 1N NaOH and transferred to vials for counting in the presence of 3 ml scintillation solution containing toluene:Lumax (Lumac, The Netherlands) (3:2) mix. Assays were performed in triplicates.

[8] = THP 10 μg/ml (66 μM, 60 μM printed for THP(B)), Act D 3 μg/ml [2.5 μM]
[9] = THP 30 μg/ml (200 μM), Act D 3 μg/ml [2.5 μM]
[10] = THP 60 μg/ml (400 μM), Act D 3 μg/ml [2.5 μM]
[11] = THP 60 μg/ml (400 μM), without Act D

Cc1c2oc3c(C)ccc(C(=O)N[C@@H]4C(=O)N[C@H](C(C)C)C(=O)N5CCC[C@H]5C(=O)N(C)CC(=O)N(C)[C@@H](C(C)C)C(=O)O[C@@H]4C)c3nc-2c(C(=O)N[C@@H]2C(=O)N[C@H](C(C)C)C(=O)N3CCC[C@H]3C(=O)N(C)CC(=O)N(C)[C@@H](C(C)C)C(=O)O[C@@H]2C)c(N)c1=O [Act D, Actinomycin D] (I: T[dV]P[Sar][NMeV] / II: T[dV]P[Sar][NMeV]; ester I:1-I:C, II:1-II:C; linker I:N-II:N via Actinocin(9to1))
d(ATGCAT) (free/bound) (d(ATGCAT); molar ratio Act D/d(ATGCAT) 0.16): 4.9 | d(ATGCAT) (free/bound) (d(ATGCAT); molar ratio Act D/d(ATGCAT) 0.32): 1.7 | d(ATGCAT) (free/bound) (d(ATGCAT); molar ratio Act D/d(ATGCAT) 0.48): 0.8 | d(ATGCAT) (free/bound) (d(ATGCAT); molar ratio Act D/d(ATGCAT) 0.64): 0.4 | Percentage of residual transcription ([1]; Actinomycin-D 1 μg/ml): 16% | Percentage of residual transcription ([1]; Actinomycin-D 5 μg/ml): 3% | inhibition of transcription ([2]; Act D 2.5 μM (3 μg/ml) by itself): 97% | % transcription ([2]; Act D 3 μg/ml [2.5 μM], THP 0): 0.2% | Percentage of residual transcription ([2]; Actinomycin-D 1 μg/ml): 22% | Percentage of residual transcription ([2]; Actinomycin-D 4 μg/ml): 3% | Percentage of residual transcription ([2]; Actinomycin-D 5 μg/ml): 3% | Percentage of residual transcription ([3]; Actinomycin-D 1 μg/ml): 13% | Percentage of residual transcription ([3]; Actinomycin-D 3 μg/ml): 3% | Percentage of residual transcription ([3]; Actinomycin-D 5 μg/ml): 0.1% | residual transcription ([4]; 1 μg/ml Act D added with the chase): 10-20% | residual transcription ([4]; Act D 3-5 μg/ml): 0.1-3% | inhibition of the transcription reaction ([5]; Act D alone at 0.4 μg/ml): 80% | residual transcription ([5]; actinomycin D alone, 0.4 μg/ml): 20%

CC1=NCC(O)C(C(=O)O)N1 (stereo not drawn) [THP(A), 2-methyl-4-carboxy-5-hydroxy-3,4,5,6-tetrahydropyrimidine]
toxic effects [6]: no toxic effects | antibiotic activity [7]: do not have antibiotic activity | growth of E. coli in the presence of adriamycin (E. coli): enable efficient growth of E. coli | growth of E. coli under high salt concentrations (E. coli): enable efficient growth of E. coli | % transcription [2, 8]: 0.2% | % transcription [2, 9]: 0.5% | % transcription [2, 10]: 1.5% | % transcription [2, 11]: 100% | effect of the THP by itself on the transcription reactions ([2]; without Act D): did not inhibit the transcription reactions

CC1=NCC[C@@H](C(=O)O)N1 [THP(B), 2-methyl-4-carboxy-3,4,5,6-tetrahydropyrimidine]
antibiotic activity [7]: do not have antibiotic activity | % transcription [2, 8]: 1.0% | % transcription [2, 9]: 2.7% | % transcription [2, 10]: 5.1% | % transcription [2, 11]: 100% | effect of the THP by itself on the transcription reactions ([2]; without Act D): did not inhibit the transcription reactions | protective effect on enzymes (enzymes): protective effect on enzymes

COc1cccc2c1C(=O)c1c(O)c3c(c(O)c1C2=O)C[C@@](O)(C(=O)CO)C[C@@H]3O[C@H]1C[C@H](N)[C@H](O)[C@H](C)O1 [adriamycin]
inhibition at 0.01 µg/mL (HL60 cells): 30% | inhibition at 0.02 µg/mL (HL60 cells): 40%
